Where two headings read alike, the source gives them in different places.
Target: T1, human leucocyte elastase (HLE) (Homo sapiens, UniProt P08246)
T1 construct: purchased Calbiochem
T1 sequence (P08246 30-267): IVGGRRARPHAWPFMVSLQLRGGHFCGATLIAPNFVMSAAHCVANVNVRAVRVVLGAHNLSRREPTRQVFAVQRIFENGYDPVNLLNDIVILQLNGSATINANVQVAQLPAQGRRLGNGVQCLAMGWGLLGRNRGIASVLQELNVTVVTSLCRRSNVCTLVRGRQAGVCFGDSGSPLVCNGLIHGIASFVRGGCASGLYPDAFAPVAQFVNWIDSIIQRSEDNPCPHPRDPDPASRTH
Experiment: HLE (human leucocyte elastase) inhibition kinetics
Format: biochemical
Details: 37° C., pH 7.4; for kinact/KI: rate of formation of the HLE-inhibitor complex, read-out: "Efficacy" K5 /Ki
Description: Vs =steady state rate Vz =zero time rate Vo =rate at [I]=0 Km =Michaelis constant for the enzyme substrate pair (independently determined under the same experimental conditions). Full details of the Experimental Protocol are reported in […] et al., Eur. J. Med. Chem. 1992, 27, 875-890.

[1] = Table 2, apparent dissociation constant of HLE-inhibitor complex at steady rate, read-out: Potency Ki^SS
[2] = Table 3, * outside determination limits
[3] = Table 3, * outside determination limits, read-out: "Potency" Ki ^33

SMILES	Ki [1] [µM]	"Efficacy" K5 /K1 [2] [M⁻¹ s⁻¹]	Ki [3] [µM]	kinact/KI (Table 2) [M⁻¹ s⁻¹]
CO[C@H]1C(=O)N2C(C(=O)C(C)(C)C)=C(CSc3nnnn3C)C(OC(=O)c3ccccc3)S(=O)(=O)[C@H]12 (stereo partly drawn) [Compound 19, 2-Benzoyloxy-4-tert-butylcarbonyl-7α-methoxy-3-(1-methyl-1,2,3,4-tetrazol-5-yl)thiomethyl-3-cephem 1,1-dioxide]		< 2		
CO[C@H]1C(=O)N2C(C(=O)c3ccccc3)=C(C)C(OC(=O)c3ccc(C(=O)O)cc3)S(=O)(=O)[C@H]12 (stereo partly drawn) [Compound 25, 4-Benzoyl-2-(4-carboxybenzoyl)oxy-7α-methoxy-3-methyl-3-cephem 1,1-dioxide]		29	34	
CO[C@H]1C(=O)N2C(C(=O)C(C)(C)C)=C(C)C(OC(=O)c3ccc(C(=O)c4ccccc4)cc3)S(=O)(=O)[C@H]12 (stereo partly drawn) [Compound 83, 2-[4-(Benzoyl)benzoyloxy]-4-tert-butylcarbonyl-7α-methoxy-3-methyl-3-cephem 1,1-dioxide]		2	500	
CO[C@H]1C(=O)N2C(C(=O)N3CCCC3)=C(CSc3nc(=O)c(O)nn3C)CS(=O)(=O)[C@H]12 [L-659,286, reference compound]	0.075			9200

Further lines, results first:

Ki [1] [µM]	"Efficacy" K5 /K1 [2] [M⁻¹ s⁻¹]	Ki [3] [µM]	kinact/KI (Table 2) [M⁻¹ s⁻¹]	SMILES
< 0.002				CO[C@H]1C(=O)N2C(C(=O)C(C)(C)C)=C(C)C(OC(=O)c3ccccc3)S(=O)(=O)[C@H]12 (stereo partly drawn) [Compound 2, 2-Benzoyloxy-4-tert-butylcarbonyl-7α-methoxy-3-methyl-3-cephem 1,1-dioxide]
	< 2			CO[C@H]1C(=O)N2C(C(=O)C(C)(C)C)=C(C)C(OC(=O)c3ccc4ccccc4c3)S(=O)(=O)[C@H]12 (stereo partly drawn) [Compound 11]
	8			CO[C@H]1C(=O)N2C(C(=O)c3ccccc3)=C(C)C(OC(=O)c3ccccc3)S(=O)(=O)[C@H]12 (stereo partly drawn) [Compound 24, 2-Benzoyloxy-7α-methoxy-3-methyl-4-phenylcarbonyl-3-cephem 1,1-dioxide]
	< 2	700		CO[C@H]1C(=O)N2C(C(=O)C(C)(C)C)=C(C)C(OC(=O)c3ccc(CSc4nc(=O)c(O)nn4C)cc3)S(=O)(=O)[C@H]12 (stereo partly drawn) [Compound 38, 4-tert-Butylcarbonyl-2-{4-[(2,5-dihydro-6-hydroxy-2-methyl-5-oxo-1,2,4-triazin-3-yl)thiomethyl]benzoyloxy}-7α-methoxy-3-methyl-3-cephem 1,1-dioxide]
	< 2			CCCCC(CC)C(=O)OC1C(C)=C(C(=O)C(C)(C)C)N2C(=O)[C@H](OC)[C@H]2S1(=O)=O (stereo partly drawn) [Compound 96, 4-tert-Butylcarbonyl-2-(2-ethylhexanoyl)oxy-7α-methoxy-3-methyl-3-cephem 1,1-dioxide]
1.3			60	CO[C@H]1C(=O)N2C(C(=O)C(C)(C)C)=C(C)CS(=O)(=O)[C@H]12 [FCE 25500, reference compound]
